Assays:
Assay in all cases: relative viability (nuclei count vs DMSO), 5 days (fraction); higher = more cells survive
[1] = compound: C1=CC=C(C(=C1)C2=CC=C(C=C2)C3=CSC4=C3C(=C(C(=O)N4)C#N)O)O + CS(=O)(=O)CCNCc1ccc(-c2ccc3ncnc(Nc4ccc(OCc5cccc(F)c5)c(Cl)c4)c3c2)o1 [Lapatinib] (partner 2 µM)
Summary of the method: (§1)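 After 5 days of treatment, lung cancer cells in 1536-well plates were fixed and stained in a single step (final 0.05% Triton X-100, 1% formaldehyde, 1 ug/ml Hoechst) and their nuclei counted on 4× images. Treatment had been applied by pin tool the day after seeding as one drug alone or as a fixed anchor-drug dose with five library-drug doses (not always all listed) in √10 steps. Relative viability is the nuclei count of treated wells divided by that of vehicle wells, and values are medians of duplicate plates.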

[2] = compound: C1=CC=C(C(=C1)C2=CC=C(C=C2)C3=CSC4=C3C(=C(C(=O)N4)C#N)O)O + NC(=O)Nc1cc(-c2cccc(F)c2)sc1C(=O)N[C@H]1CCCNC1 [AZD7762] (partner 0.2 µM)
Summary of the method: as §1

[3] = compound: O=C(CCCCCCNC(=O)c1cnc(N(c2ccccc2)c2ccccc2)nc1)NO [Ricolinostat] + CC(=O)Nc1cccc(-n2c(=O)n(C3CC3)c(=O)c3c(Nc4ccc(I)cc4F)n(C)c(=O)c(C)c32)c1 [Trametinib] (partner 0.02 µM)
Summary of the method: as §1

Ricolinostat + Olaparib = compound: O=C(CCCCCCNC(=O)c1cnc(N(c2ccccc2)c2ccccc2)nc1)NO [Ricolinostat] + O=C(c1cc(Cc2n[nH]c(=O)c3ccccc23)ccc1F)N1CCN(C(=O)C2CC2)CC1 [Olaparib] (partner 8 µM)
Summary of the method: as §1

Row | Cell Line | relative viability ([1]; first compound 0.08 µM) | relative viability ([1]; first compound 0.253 µM) | relative viability ([1]; first compound 0.8 µM) | relative viability ([1]; first compound 2.53 µM) | relative viability ([1]; first compound 8 µM) | relative viability ([2]; first compound 0.08 µM) | relative viability ([2]; first compound 0.253 µM) | relative viability ([2]; first compound 0.8 µM) | relative viability ([2]; first compound 2.53 µM) | relative viability ([2]; first compound 8 µM) | relative viability ([3]; first compound 0.08 µM) | relative viability ([3]; first compound 0.253 µM) | relative viability ([3]; first compound 0.8 µM) | relative viability ([3]; first compound 2.53 µM) | relative viability (Ricolinostat + Olaparib; first compound 0.08 µM) | relative viability (Ricolinostat + Olaparib; first compound 0.253 µM) | relative viability (Ricolinostat + Olaparib; first compound 0.8 µM) | relative viability (Ricolinostat + Olaparib; first compound 2.53 µM)
1 | HOP-62 | 0.766 | 0.888 | 1.1 | 1.19 | 0.871 | 0.533 | 0.548 | 0.376 | 0.704 | 0.474 | 0.335 | 0.391 | 0.384 | 0.432 | 0.516 | 0.408 | 0.31 | 0.394
2 | IA-LM | 0.538 | 0.413 | 0.599 | 0.952 | 0.537 | – | – | – | – | – | – | – | – | – | 0.728 | 0.92 | 0.737 | 0.586
3 | LC-2-ad | 0.781 | 1.01 | 0.903 | 1.1 | 1.11 | 0.873 | 0.798 | 0.871 | 0.872 | 0.824 | 0.899 | 0.911 | 0.907 | 0.836 | 0.699 | 0.639 | 0.665 | 0.285
4 | LCLC-97TM1 | 1.01 | 1.6 | 1.05 | 0.68 | 0.92 | 0.225 | 0.259 | 0.258 | 0.278 | 0.148 | 0.195 | 0.182 | 0.25 | 0.287 | 0.355 | 0.446 | 0.486 | 0.341
5 | LCLC-103H | – | – | – | – | – | 0.737 | 0.731 | 0.803 | 0.728 | 0.743 | 0.632 | 0.599 | 0.685 | 0.77 | 0.675 | 0.655 | 0.771 | 0.743
6 | LK-2 | – | 0.884 | 0.932 | 1.05 | 0.696 | 0.309 | 0.522 | 0.277 | 0.517 | 0.274 | 0.756 | 1.04 | 0.817 | 0.718 | 0.623 | 0.687 | 0.691 | 0.575
7 | NCI-H441 | – | – | – | – | – | 1.02 | 1.17 | 1.33 | 1.57 | 1.02 | 0.259 | 0.521 | 0.629 | 0.697 | 0.575 | 0.471 | 0.478 | 0.455
8 | NCI-H520 | 0.602 | 0.876 | 1.15 | 0.859 | 0.736 | – | – | – | – | – | – | 0.735 | 0.621 | 0.613 | – | 0.305 | 0.343 | 0.271
9 | NCI-H522 | – | – | – | – | – | 0.802 | 0.871 | 0.869 | 0.898 | 0.772 | 0.742 | 0.711 | 0.769 | 0.832 | 0.61 | 0.651 | 0.606 | 0.676
10 | NCI-H661 | 0.446 | 0.481 | 0.501 | 0.507 | 0.382 | – | – | – | – | – | 0.498 | 0.569 | 0.592 | 0.568 | 0.654 | 0.75 | 0.706 | 0.558
11 | NCI-H1299 | 0.923 | 0.929 | 0.987 | 0.961 | 0.948 | – | – | – | – | – | – | – | – | – | 0.95 | 0.914 | 0.942 | 0.91
12 | NCI-H1563 | 0.715 | 0.868 | 1.01 | 0.881 | 0.989 | – | – | – | – | – | – | – | – | – | – | – | – | –
13 | NCI-H1648 | – | – | – | – | – | – | 0.676 | 0.734 | 0.689 | 0.608 | – | 0.512 | 0.489 | 0.519 | – | 0.817 | 0.407 | 0.4
14 | NCI-H1650 | – | 0.872 | 0.811 | 0.72 | 0.54 | – | – | – | – | – | 0.791 | 0.583 | 0.525 | 0.43 | 0.767 | 0.632 | 0.823 | 0.579
15 | NCI-H1703 | 0.896 | 1.2 | 0.945 | 1.16 | 0.939 | 0.113 | 0.147 | 0.111 | 0.15 | 0.148 | – | – | – | – | – | 0.426 | 0.332 | 0.458
16 | NCI-H2009 | 1.04 | 0.933 | 0.795 | 0.886 | 0.724 | – | – | – | – | – | 0.158 | 0.262 | 0.294 | 0.353 | 0.67 | 0.663 | 0.623 | 0.457
17 | NCI-H2023 | 0.925 | 0.94 | 0.579 | 0.729 | 0.88 | – | – | – | – | – | 0.51 | 0.637 | 0.558 | 0.536 | 0.485 | 0.447 | 0.407 | 0.239
18 | NCI-H2228 | 0.701 | 1.33 | 0.814 | 0.998 | 1.1 | – | – | – | – | – | 0.642 | 0.534 | 0.482 | 0.45 | 0.647 | 0.548 | 0.476 | 0.45
19 | NCI-H2342 | – | – | – | – | – | 0.432 | 0.536 | 0.446 | 0.474 | 0.358 | 0.636 | 0.807 | 0.831 | 0.78 | 0.444 | 0.535 | 0.421 | 0.46
20 | SK-LU-1 | 0.977 | 1.1 | 0.685 | 1.05 | 0.682 | – | – | – | – | – | 0.476 | 0.52 | 0.475 | 0.396 | 0.371 | 0.478 | 0.362 | 0.382
21 | SK-MES-1 | 0.435 | 0.51 | 0.441 | 0.457 | 0.463 | – | – | – | – | – | 0.548 | 0.537 | 0.656 | 0.734 | 0.713 | 0.712 | 0.691 | 0.681
22 | SW 900 | – | – | – | – | – | – | 0.625 | 0.607 | 0.692 | 0.563 | 0.659 | 0.905 | 0.954 | 0.609 | 0.845 | 0.836 | 0.853 | 0.621
23 | SW 1573 | 0.991 | 1.12 | 1.21 | 1.11 | 0.862 | – | – | – | – | – | 0.468 | 0.55 | 0.593 | 0.596 | 0.436 | 0.508 | 0.534 | 0.404
24 | UMC-11 | 0.745 | 0.871 | 0.941 | 1 | 0.858 | – | – | – | – | – | 0.644 | 0.684 | 0.623 | 0.265 | 0.345 | 0.339 | 0.323 | 0.198
